Experimental data: patent publication US20220401448A1, “Pharmaceutical Compositions Comprising an Inhibitor of a Histon-deacetylase (HDACi) and an Agonist of Toll-like-receptor 7 and/or 8 (TLR7 and/or TLR8) and Their Use in the Treatment of Cancer” (priority 2019, published 2022)
Values after ≈ are worked out from the molar mass of the structure shown. Like-named read-outs stand apart in the source and are kept apart here.

How the values were obtained:
[1] = system: SKOV3 ovarian cancer cell line; assay: MTT proliferation assay, single drugs, SKOV3; type: cell-based; conditions: Homo sapiens
[2] = system: OvCar3 ovarian cancer cell line; assay: Individual effects (IC50), OvCar3; type: cell-based; conditions: Homo sapiens, OVCAR-3
[3] = system: OvCa2810 primary ovarian cancer cells; assay: Individual effects (IC50), OvCa2810; type: cell-based; conditions: OvCa2810, single drug
[4] = system: OvCa236 primary ovarian cancer cells; assay: Individual effects (IC50), OvCa236; type: cell-based; conditions: OvCa236, single drug
[5] = common vehicles; cited from earlier work
[6] = system: Peripheral Blood Mononuclear Cells (PBMC); assay: Induction of apoptosis in PBMC from healthy volunteers; conditions: 24 h of drug exposure, 1×IC50 (SKOV3 values)
Description: The drug doses (1×IC50) employed for both compound classes were those obtained in SKOV3 cells.

[7] = system: SKOV3^WT ovarian carcinoma cell line; assay: Screening of SKOV3^WT for HERV expression using qPCR; type: cell-based; conditions: for ΔCt HERV Henv: untreated 15.87 ± 0.56; for ΔCt HERV KISD: untreated 17.66 ± 0.23; for ΔCt HERV Kpol: untreated 18.16 ± 0.48; for ΔCt HERV Kenv: untreated 18.49 ± 0.45; for ΔCt HERV IDDMK1.2: untreated 18.68 ± 0.41; for ΔCt KERV Kseminoma: untreated 18.90 ± 0.41; for ΔCt HERV V3.1: untreated 19.32 ± 0.41; for ΔCt HERV Kgag: untreated 19.47 ± 0.58; for ΔCt HERV Fpol: untreated 19.69 ± 0.37; for ΔCt HERV KLTR: untreated 19.91 ± 0.60; for ΔCt HERV Eenv: untreated 20.10 ± 0.51; for ΔCt HERV Wprt: untreated 20.48 ± 0.72; for ΔCt HERV FRD1: untreated 21.71 ± 0.60; for ΔCt HERV Wenv: untreated 22.12 ± 0.53; for ΔCt HERV WE1: untreated 22.12 ± 0.62; for ΔCt HERV V1: untreated 22.95 ± 1.89; for ΔCt HERV V2: untreated 23.11 ± 2.07; for ΔCt HERV Penv: untreated 25.26 ± 0.48; for ΔCt HERV Pgag: untreated 25.33 ± 0.31; for ΔCt HERV HC2pol: untreated 25.99 ± 0.57; for ΔCt HERV Ppol: untreated 26.05 ± 0.31; for ΔCt HERV C: untreated 26.20 ± 0.36; for ΔCt HERV MER34.1: untreated 27.96 ± 0.43; for ΔCt HERV T: untreated 28.36 ± 0.87; for ΔCt HERV L: untreated 28.42 ± 1.52; for ΔCt HERV Fc1: untreated 29.68 ± 0.57; for ΔCt HERV Spol: untreated 32.00 ± 0.73
Description: In particular, the SKOV3^WT ovarian carcinoma cell line was screened for HERV expression using quantitative PCT (qPCR). […] Gene expression was considered enforced when more than 3 PCR-cycles of difference (Untreated−Treated) was calculated (n≥3).
18S ribosomal RNA serves as standard.

[8] = system: OvCa28 primary ovarian cancer cells; assay: MTT proliferation assay, single drugs, OvCa28; type: cell-based; conditions: for resistance of primary ovarian cancer cells compared to SKOV3: OvCa28 IC50 vs SKOV3 IC50; for IC50: read-out: IC50 (cell growth)
Description: OvCa28 primary ovarian cancer cells were isolated from a pretreated patient (patient number 28). These primary ovarian cancer cells were treated individually with either the HDAC inhibitor Romidepsin or the TLR7 agonist Vesatolimod as shown in FIG. 4. Cell growth was determined by the MTT proliferation assay.

NFkB activity = NFkB activity by luciferase assay (NanoLuc reporter vector with NF-κB response element); type: cell-based
Description: In order to make conclusions about NFkB activation, the NFkB activity was analyzed by luciferase assay. The NanoLuc® Reporter Vector with NF-κB Response Element from Promega was used for this purpose.
The pNL3.2.NF-κB-RE[NlucP/NF-κB-RE/Hygro] Vector pNL3.2. (GenBank® Accession Number JQ513377) contains five copies of an NF-κB response element (NF-κB-RE) that drives transcription of a destabilized form of NanoLuc® luciferase, an engineered small (23.3 kDa) luciferase fusion protein. The NlucP reporter consists of NanoLuc® luciferase with a C-terminal fusion to PEST, a protein destabilization domain, which responds more quickly and with greater magnitude to changes in transcriptional activity than unmodified NanoLuc® luciferase. NanoLuc® (Nluc) luciferase is a small enzyme (19.1 kDa) engineered for optimal performance as a luminescent reporter. The luminescent reaction is ATP-independent and designed to suppress background luminescence for maximal assay sensitivity.
Without stimulation we detect about 6000 RLU. […] In summary, loss of NFkB was confirmed not only by Western Blot, but also in this functional test by loss of NFkB functionality using the reporter vector with NF-κB response element.

SKOV3^WT xenograft = conditions: i.p. Romidepsin 1 mg/kg, Vesatolimod 5 mg/kg, four times at 3 day intervals
Description: 1 mm^3 tumor pieces were implanted subcutaneosly into six to eight week old female NMRI nude mice by minimal operative intervention. […] Three days after mice were intraperitoneally treated at doses of 1 mg/kg and 5 mg/kg body weight four times at 3 day intervals for 12 consecutive days.

HERV-V1 and V2 = assay: ChIP (anti-H3K9ac) with qPCR of HERV-V1 and V2; type: cell-based; conditions: SKOV3, OvCar3, OvCa236
Description: While the data concerning the transcriptional upregulation of HERV-V1/V2 upon HDAC inhibition were confirmed, it is unclear whether this is a direct effect of the drugs on epigenetic marks proximate to sites of HERV-V1/V2 integration. For this reason, ChIP-analyses of relevant histones were performed (ChIP=chromatin immunoprecipitation, was performed as described in Nakato R. et al. “Methods for ChIP-seq analysis: A practical workflow and advanced applications”, Methods 2020, doi.org/10.1016/j.ymeth.2020.03.005). Histone H3 along with H2A, H2B and H4 is involved in the structure of chromatin in eukaryotic cells. Histone H3 can undergo several different types of epigenetic modifications that influence cellular processes. These modifications include acetylation, phosphorylation, methylation, ubiquitination, and ADP-ribosylation and occur on the N-terminal tail domains of histone H3. […] In most species, histone H3 is primarily acetylated at lysine 9, 14, 18, and 27. […] We analyzed not only the ovarian cell lines SKOV3 and OVCar3, but also the primary cancer cell line OvCa236 derived from a patient. […] We therefore performed Immunoprecipitation using a anti-histone H3K9ac (Acetyl H3K9) polyclonal antibody and performed quantitative PCT (qPCR) as already described in Example 2.
HERV-V1 and V2, respectively, were analyzed separately. […]

SKOV3 cells = assay: Dose-response of HERV transcription by qPCR, SKOV3; conditions: FIG. 9
Description: The term ΔCt reflects the difference (Δ) in cycle (C) thresholds (t). […] Measurement of specific RNA transcripts like HERV-V1/V2 by qPCR is usually performed in relation to the standard 18S, more or less transcription products are expressed in + or −ΔCt. Furthermore, differences in ΔCt between treated and untreated cells were shown as ΔΔCt.

[9] = SK-OV-3, SKOV3, single drug, read-out: IC50
[10] = OvCar3, single drug, read-out: IC50

| Compound | IC50 [1, 9] [µM] | IC50 [2, 10] [µM] | IC50 [3] [µM] | IC50 [4] [µM] | dissolution [5] | rate of apoptosis [6] | ΔCt HERV Henv ([7]; 1x drug) | ΔCt HERV KISD ([7]; 1x drug) | ΔCt HERV Kpol ([7]; 1x drug) | ΔCt HERV Kenv ([7]; 1x drug) | ΔCt HERV IDDMK1.2 ([7]; 1x drug) | ΔCt KERV Kseminoma ([7]; 1x drug) | ΔCt HERV V3.1 ([7]; 1x drug) | ΔCt HERV Kgag ([7]; 1x drug) | ΔCt HERV Fpol ([7]; 1x drug) | ΔCt HERV KLTR ([7]; 1x drug) | ΔCt HERV Eenv ([7]; 1x drug) | ΔCt HERV Wprt ([7]; 1x drug) | ΔCt HERV FRD1 ([7]; 1x drug) | ΔCt HERV Wenv ([7]; 1x drug) | also measured |
| --- | --- | --- | --- | --- | --- | --- | --- | --- | --- | --- | --- | --- | --- | --- | --- | --- | --- | --- | --- | --- | --- |
| CC(C)Cn1cnc2c(N)nc3ccccc3c21 [Imiquimod, imiquimod] | 15 | 23 | 500 | 500 | difficult to dissolve | about 3% |  |  |  |  |  |  |  |  |  |  |  |  |  |  |  |
| C/C=C1\NC(=O)[C@H]2CSSCC/C=C/[C@H](CC(=O)N[C@H](C(C)C)C(=O)N2)OC(=O)[C@H](C(C)C)NC1=O [Romidepsin, romidepsin] |  |  | 0.006 | 0.003 |  | about 3% | 14.87 ± 0.30 | 17.10 ± 0.35 | 18.19 ± 0.51 | 18.48 ± 0.26 | 17.66 ± 0.27 | 19.70 ± 0.76 | 18.63 ± 0.36 | 18.57 ± 0.43 | 19.67 ± 0.22 | 21.02 ± 1.95 | 19.99 ± 0.51 | 20.97 ± 1.15 | 22.07 ± 0.64 | 22.33 ± 0.33 | ΔCt HERV WE1 ([7]; 1x drug): 21.92 ± 1.02; ΔCt HERV V1 ([7]; 1x drug): 15.30 ± 0.36; ΔCt HERV V2 ([7]; 1x drug): 15.24 ± 0.25; ΔCt HERV Penv ([7]; 1x drug): 25.46 ± 0.60; ΔCt HERV Pgag ([7]; 1x drug): 26.02 ± 0.50; ΔCt HERV HC2pol ([7]; 1x drug): 24.85 ± 0.35; ΔCt HERV Ppol ([7]; 1x drug): 26.55 ± 0.39; ΔCt HERV C ([7]; 1x drug): 26.79 ± 0.97; ΔCt HERV MER34.1 ([7]; 1x drug): 25.78 ± 0.13; ΔCt HERV T ([7]; 1x drug): 29.31 ± 0.84; ΔCt HERV L ([7]; 1x drug): 27.62 ± 0.95; ΔCt HERV Fc1 ([7]; 1x drug): 28.17 ± 3.80; ΔCt HERV Spol ([7]; 1x drug): 31.04 ± 1.11; ΔCt HERV P4.6 ([7]; 1x drug, untreated […]): 31.65 ± 1.16; IC50 ([1]; SK-OV-3): 0.004 µM; IC50 ([1]; SK-OV-3, read-out: IC50 (cell growth)): 0.004 µg/mL; resistance of primary ovarian cancer cells compared to SKOV3 [8]: ~188 fold; IC50 [8]: 0.75 µg/mL (≈ 1.39 µM); IC50 [2]: 0.007 µM |
| CCCCOc1nc(N)c2c(n1)N(Cc1cccc(CN3CCCC3)c1)CC(=O)N2 [Vesatolimod, vesatolimod] | 39 | 32 | 40 | 32 | better dissolution profile in common vehicles | about 8% |  |  |  |  |  |  |  |  |  |  |  |  |  |  | IC50 ([1]; SK-OV-3, SKOV3, single drug, MTT, read-out: IC50 (cell growth)): 12.5 µg/mL; IC50 ([8]; OvCa28, single drug, MTT): 30 µg/mL (≈ 73.1 µM); resistance of primary ovarian cancer cells compared to SKOV3 [8]: ~2 fold; NFkB activity (reporter) (NFkB activity; in both cell lines, OvCar 3 and SKOV3, without stimulation about 6000 RLU): slightly reduced activity; total tumor volume (SKOV3^WT xenograft): did reduce the total tumor volume |
| O=C(CCCCCCC(=O)Nc1ccccc1)NO [Vorinostat, vorinostat] |  |  |  |  |  | about 6% | 15.51 ± 0.31 | 17.71 ± 0.19 | 18.81 ± 0.30 | 19.26 ± 1.00 | 18.29 ± 0.29 | 20.25 ± 0.18 | 19.22 ± 0.33 | 19.17 ± 0.41 | 20.37 ± 0.49 | 19.31 ± 0.42 | 20.08 ± 0.25 | 20.80 ± 0.34 | 22.51 ± 0.45 | 22.03 ± 0.34 | ΔCt HERV WE1 ([7]; 1x drug): 22.18 ± 0.32; ΔCt HERV V1 ([7]; 1x drug): 15.48 ± 0.78; ΔCt HERV V2 ([7]; 1x drug): 15.46 ± 0.79; ΔCt HERV Penv ([7]; 1x drug): 25.39 ± 0.49; ΔCt HERV Pgag ([7]; 1x drug): 25.45 ± 0.11; ΔCt HERV HC2pol ([7]; 1x drug): 25.52 ± 0.39; ΔCt HERV Ppol ([7]; 1x drug): 26.34 ± 0.33; ΔCt HERV C ([7]; 1x drug): 27.84 ± 0.59; ΔCt HERV MER34.1 ([7]; 1x drug): 26.62 ± 0.62; ΔCt HERV T ([7]; 1x drug): 28.24 ± 0.72; ΔCt HERV L ([7]; 1x drug): 28.08 ± 0.90; ΔCt HERV Fc1 ([7]; 1x drug): 30.36 ± 0.84; ΔCt HERV Spol ([7]; 1x drug): 30.80 ± 0.75; HERV-V2 expression levels ([7]; SKOV3, qPCR, FIG. 1B): increased; expression of HERV-V1 and V2 transcripts after H3K9ac immunoprecipitation (HERV-V1 and V2): enhanced; expression of HERV-V1 and V2 (SKOV3 cells): increased |
| TNFα |  |  |  |  |  |  |  |  |  |  |  |  |  |  |  |  |  |  |  |  | response of NF-κB reporter vector (NFkB activity; positive control, inflammatory stimulation): 20.000 RLU |
